# Assay results reported in PMC9653409, “Generative deep learning enables the discovery of a potent and selective RIPK1 inhibitor” (Nature Communications, 2022).
# Where two headings read alike, the source gives them in different places.
# Tests used:
# Experiment in all cases: Kinase inhibitory activity profiling of RI-962@10 µM (406 kinases, Eurofins)
# Assay type in all cases: biochemical
# [1] = target: panel of human kinases (kinase named in endpoint) (Homo sapiens, UniProt P00519, Q252H); details: 10 µM; read-out: Activity (%), Abl (Q252H) (h)
# How it was run: (§1)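 Radiometric filter-binding kinase assays: enzyme preincubated 15 min with compound in 8 mM MOPS pH 7.0, 0.2 mM EDTA, 250 μM peptide substrate, 10 mM magnesium acetate, 10 μM [γ-33P]-ATP. Reaction started with Mg/ATP, run 40 min at room temperature, stopped with phosphoric acid; 33P incorporation read by scintillation counting. Other kinases by similar protocols.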
# [2] = target: panel of human kinases (kinase named in endpoint) (Homo sapiens, UniProt P08581, Y1230C); details: 10 µM; read-out: Activity (%), Met(Y1248C)(h)
# How it was run: as §1
# [3] = target: panel of human kinases (kinase named in endpoint) (Homo sapiens, UniProt P08631); details: 10 µM
# panel of human kinases (kinase named in endpoint) (Homo sapiens, UniProt P08631), sequence (P08631 whole entry): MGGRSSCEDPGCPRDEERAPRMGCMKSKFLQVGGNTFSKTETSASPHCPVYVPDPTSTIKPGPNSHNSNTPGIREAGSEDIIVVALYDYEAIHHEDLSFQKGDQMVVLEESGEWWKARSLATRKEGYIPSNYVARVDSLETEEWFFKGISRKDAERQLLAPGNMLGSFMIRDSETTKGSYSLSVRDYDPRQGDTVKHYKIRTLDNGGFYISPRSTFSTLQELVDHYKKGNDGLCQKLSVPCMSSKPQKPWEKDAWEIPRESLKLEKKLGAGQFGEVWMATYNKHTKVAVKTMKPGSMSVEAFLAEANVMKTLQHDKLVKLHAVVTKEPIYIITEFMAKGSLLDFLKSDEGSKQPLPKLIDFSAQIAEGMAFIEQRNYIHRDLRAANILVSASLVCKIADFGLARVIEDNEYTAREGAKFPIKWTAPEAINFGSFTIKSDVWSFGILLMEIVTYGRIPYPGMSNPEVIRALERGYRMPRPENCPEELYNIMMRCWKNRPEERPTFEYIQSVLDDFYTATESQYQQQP
# How it was run: as §1
# [4] = target: panel of human kinases (kinase named in endpoint) (Homo sapiens, UniProt P14616); details: 10 µM; read-out: Activity (%), IRR(h)
# panel of human kinases (kinase named in endpoint) (Homo sapiens, UniProt P14616), sequence (P14616 27-1297): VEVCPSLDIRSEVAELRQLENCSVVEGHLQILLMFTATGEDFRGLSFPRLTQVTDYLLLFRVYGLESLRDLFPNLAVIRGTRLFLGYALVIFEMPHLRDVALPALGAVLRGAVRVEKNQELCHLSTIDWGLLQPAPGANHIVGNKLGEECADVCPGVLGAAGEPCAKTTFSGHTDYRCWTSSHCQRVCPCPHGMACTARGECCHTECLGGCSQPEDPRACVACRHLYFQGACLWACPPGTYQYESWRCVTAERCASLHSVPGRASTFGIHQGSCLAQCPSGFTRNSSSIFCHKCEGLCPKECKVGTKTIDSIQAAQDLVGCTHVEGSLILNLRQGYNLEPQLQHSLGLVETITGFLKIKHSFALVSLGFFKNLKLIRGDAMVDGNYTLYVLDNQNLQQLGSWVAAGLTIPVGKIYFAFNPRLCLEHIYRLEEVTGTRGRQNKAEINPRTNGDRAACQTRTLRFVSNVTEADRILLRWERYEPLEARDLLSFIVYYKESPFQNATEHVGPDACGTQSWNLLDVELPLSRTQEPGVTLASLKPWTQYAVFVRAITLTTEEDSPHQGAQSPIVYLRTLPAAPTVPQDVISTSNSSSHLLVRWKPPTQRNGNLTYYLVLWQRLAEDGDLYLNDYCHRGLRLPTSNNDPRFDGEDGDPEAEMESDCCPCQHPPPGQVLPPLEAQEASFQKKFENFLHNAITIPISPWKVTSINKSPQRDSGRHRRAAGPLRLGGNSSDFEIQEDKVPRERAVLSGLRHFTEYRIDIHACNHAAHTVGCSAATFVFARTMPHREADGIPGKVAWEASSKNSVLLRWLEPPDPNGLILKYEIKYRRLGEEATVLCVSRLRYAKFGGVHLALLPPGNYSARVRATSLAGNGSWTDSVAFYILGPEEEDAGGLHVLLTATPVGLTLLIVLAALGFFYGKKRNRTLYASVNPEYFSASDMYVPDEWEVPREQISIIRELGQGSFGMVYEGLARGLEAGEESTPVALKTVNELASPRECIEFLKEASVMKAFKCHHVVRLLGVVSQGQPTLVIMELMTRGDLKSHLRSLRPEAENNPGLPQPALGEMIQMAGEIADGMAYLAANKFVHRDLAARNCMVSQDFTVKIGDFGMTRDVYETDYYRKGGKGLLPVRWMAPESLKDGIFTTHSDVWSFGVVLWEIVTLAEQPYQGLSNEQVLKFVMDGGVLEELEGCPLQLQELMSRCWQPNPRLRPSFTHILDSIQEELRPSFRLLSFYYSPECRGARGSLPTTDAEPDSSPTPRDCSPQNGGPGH
# How it was run: as §1
# [5] = target: panel of human kinases (kinase named in endpoint) (Homo sapiens, UniProt P19525); details: 10 µM; read-out: Activity (%), PKR(h)
# How it was run: as §1
# [6] = target: panel of human kinases (kinase named in endpoint) (Homo sapiens, UniProt P21709); details: 10 µM; read-out: Activity (%), EphA1(h)
# How it was run: as §1
# [7] = target: panel of human kinases (kinase named in endpoint) (Homo sapiens, UniProt P25098); details: 10 µM; read-out: Activity (%), GRK2(h)
# How it was run: as §1
# [8] = target: panel of human kinases (kinase named in endpoint) (Homo sapiens, UniProt P27448); details: 10 µM; read-out: Activity (%), MARK3(h)
# panel of human kinases (kinase named in endpoint) (Homo sapiens, UniProt P27448), sequence (P27448 whole entry): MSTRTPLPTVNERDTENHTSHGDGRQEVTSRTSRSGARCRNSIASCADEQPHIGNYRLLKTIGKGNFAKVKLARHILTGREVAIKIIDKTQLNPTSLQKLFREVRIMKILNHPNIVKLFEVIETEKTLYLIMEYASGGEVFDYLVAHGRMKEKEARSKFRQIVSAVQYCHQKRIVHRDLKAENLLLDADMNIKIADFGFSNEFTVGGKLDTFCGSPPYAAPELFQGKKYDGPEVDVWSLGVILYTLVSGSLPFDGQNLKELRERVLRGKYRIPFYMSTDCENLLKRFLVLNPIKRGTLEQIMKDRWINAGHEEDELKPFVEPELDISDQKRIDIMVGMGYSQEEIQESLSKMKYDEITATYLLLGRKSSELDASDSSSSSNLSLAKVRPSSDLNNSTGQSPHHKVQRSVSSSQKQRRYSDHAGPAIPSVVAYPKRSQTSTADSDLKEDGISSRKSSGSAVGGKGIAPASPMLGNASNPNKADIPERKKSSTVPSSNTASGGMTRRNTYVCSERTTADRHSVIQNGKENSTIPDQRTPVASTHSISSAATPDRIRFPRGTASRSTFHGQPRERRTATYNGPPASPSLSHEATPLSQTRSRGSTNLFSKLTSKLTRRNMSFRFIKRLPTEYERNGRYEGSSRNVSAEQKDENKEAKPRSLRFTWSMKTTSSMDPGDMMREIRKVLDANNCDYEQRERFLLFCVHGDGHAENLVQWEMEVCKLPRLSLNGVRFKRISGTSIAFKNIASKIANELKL
# How it was run: as §1
# [9] = target: panel of human kinases (kinase named in endpoint) (Homo sapiens, UniProt P34947); details: 10 µM; read-out: Activity (%), GRK5(h)
# How it was run: as §1
# [10] = target: panel of human kinases (kinase named in endpoint) (Homo sapiens, UniProt P36888, D835Y); details: 10 µM; read-out: Activity (%), Flt3(D835Y)(h)
# How it was run: as §1
# [11] = target: panel of human kinases (kinase named in endpoint) (Homo sapiens, UniProt P42684); details: 10 µM; read-out: Activity (%), Arg(h)
# How it was run: as §1
# [12] = target: panel of human kinases (kinase named in endpoint) (Homo sapiens, UniProt P43403); details: 10 µM; read-out: Activity (%), ZAP-70(h)
# How it was run: as §1
# [13] = target: panel of human kinases (kinase named in endpoint) (Homo sapiens, UniProt P49137); details: 10 µM; read-out: Activity (%), MAPKAP-K2(h)
# How it was run: as §1
# [14] = target: panel of human kinases (kinase named in endpoint) (Homo sapiens, UniProt P53779); details: 10 µM; read-out: Activity (%), JNK3(h)
# panel of human kinases (kinase named in endpoint) (Homo sapiens, UniProt P53779), sequence (P53779 whole entry): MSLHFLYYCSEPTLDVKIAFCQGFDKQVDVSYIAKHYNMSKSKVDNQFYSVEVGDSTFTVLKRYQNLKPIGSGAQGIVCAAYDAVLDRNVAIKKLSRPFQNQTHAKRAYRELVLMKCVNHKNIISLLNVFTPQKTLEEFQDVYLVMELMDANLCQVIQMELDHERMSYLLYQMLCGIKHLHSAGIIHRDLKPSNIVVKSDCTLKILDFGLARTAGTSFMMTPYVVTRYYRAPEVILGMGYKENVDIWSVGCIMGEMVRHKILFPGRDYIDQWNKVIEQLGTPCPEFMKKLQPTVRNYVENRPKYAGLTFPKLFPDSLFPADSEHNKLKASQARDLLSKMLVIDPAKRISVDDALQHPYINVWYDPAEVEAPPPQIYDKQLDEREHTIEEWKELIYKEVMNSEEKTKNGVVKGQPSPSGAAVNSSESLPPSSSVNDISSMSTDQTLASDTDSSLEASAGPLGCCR
# How it was run: as §1
# [15] = target: panel of human kinases (kinase named in endpoint) (Homo sapiens, UniProt P54756); details: 10 µM; read-out: Activity (%), EphA5(h)
# How it was run: as §1
# [16] = target: panel of human kinases (kinase named in endpoint) (Homo sapiens, UniProt Q00526); details: 10 µM; read-out: Activity (%), CDK3/cyclinE(h)
# How it was run: as §1
# [17] = target: panel of human kinases (kinase named in endpoint) (Homo sapiens, UniProt Q02156); details: 10 µM; read-out: Activity (%), PKCε(h)
# How it was run: as §1
# [18] = target: panel of human kinases (kinase named in endpoint) (Homo sapiens, UniProt Q16644); details: 10 µM; read-out: Activity (%), MAPKAP-K3(h)
# How it was run: as §1
# [19] = target: panel of human kinases (kinase named in endpoint) (Homo sapiens, UniProt Q96QT4); details: 10 µM; read-out: Activity (%), ChaK1(h)
# How it was run: as §1
# [20] = target: panel of human kinases (kinase named in endpoint) (Homo sapiens, UniProt Q9BQI3); details: 10 µM; read-out: Activity (%), HRI(h)
# How it was run: as §1
# [21] = target: panel of human kinases (kinase named in endpoint) (Homo sapiens, UniProt Q9BYT3); details: 10 µM; read-out: Activity (%), STK33(h)
# How it was run: as §1
# [22] = target: panel of human kinases (kinase named in endpoint) (Homo sapiens, UniProt Q9H093); details: 10 µM; read-out: Activity (%), NUAK2(h)
# How it was run: as §1
# [23] = target: panel of human kinases (kinase named in endpoint) (Homo sapiens, UniProt Q9NYY3); details: 10 µM; read-out: Activity (%), Snk(h)
# How it was run: as §1
# [24] = target: panel of human kinases (kinase named in endpoint) (Homo sapiens, UniProt Q9P286); details: 10 µM; read-out: Activity (%), PAK5(h)
# panel of human kinases (kinase named in endpoint) (Homo sapiens, UniProt Q9P286), sequence (Q9P286 whole entry): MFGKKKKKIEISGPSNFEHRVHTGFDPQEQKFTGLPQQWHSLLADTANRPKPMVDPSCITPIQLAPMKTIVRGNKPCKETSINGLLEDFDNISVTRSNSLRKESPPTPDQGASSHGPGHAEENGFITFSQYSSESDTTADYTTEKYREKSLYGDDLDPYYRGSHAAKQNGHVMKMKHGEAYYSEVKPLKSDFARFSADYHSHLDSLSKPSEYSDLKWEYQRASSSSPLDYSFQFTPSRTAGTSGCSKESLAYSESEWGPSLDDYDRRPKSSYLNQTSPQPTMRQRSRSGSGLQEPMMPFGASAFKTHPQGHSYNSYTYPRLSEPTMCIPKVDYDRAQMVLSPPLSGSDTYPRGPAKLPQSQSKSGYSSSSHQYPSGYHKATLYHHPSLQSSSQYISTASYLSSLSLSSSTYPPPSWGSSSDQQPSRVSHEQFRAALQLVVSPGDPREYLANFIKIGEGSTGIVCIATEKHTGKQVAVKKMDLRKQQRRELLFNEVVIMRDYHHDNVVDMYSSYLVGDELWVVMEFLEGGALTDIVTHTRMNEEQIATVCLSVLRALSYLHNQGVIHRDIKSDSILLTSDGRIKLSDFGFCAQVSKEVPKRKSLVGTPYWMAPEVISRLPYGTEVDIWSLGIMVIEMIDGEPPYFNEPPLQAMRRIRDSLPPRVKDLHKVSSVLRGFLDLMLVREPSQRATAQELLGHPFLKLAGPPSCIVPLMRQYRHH
# How it was run: as §1
# [25] = target: panel of human kinases (kinase named in endpoint) (Homo sapiens, UniProt Q9UL54); details: 10 µM; read-out: Activity (%), TAO2(h)
# panel of human kinases (kinase named in endpoint) (Homo sapiens, UniProt Q9UL54), sequence (Q9UL54 whole entry): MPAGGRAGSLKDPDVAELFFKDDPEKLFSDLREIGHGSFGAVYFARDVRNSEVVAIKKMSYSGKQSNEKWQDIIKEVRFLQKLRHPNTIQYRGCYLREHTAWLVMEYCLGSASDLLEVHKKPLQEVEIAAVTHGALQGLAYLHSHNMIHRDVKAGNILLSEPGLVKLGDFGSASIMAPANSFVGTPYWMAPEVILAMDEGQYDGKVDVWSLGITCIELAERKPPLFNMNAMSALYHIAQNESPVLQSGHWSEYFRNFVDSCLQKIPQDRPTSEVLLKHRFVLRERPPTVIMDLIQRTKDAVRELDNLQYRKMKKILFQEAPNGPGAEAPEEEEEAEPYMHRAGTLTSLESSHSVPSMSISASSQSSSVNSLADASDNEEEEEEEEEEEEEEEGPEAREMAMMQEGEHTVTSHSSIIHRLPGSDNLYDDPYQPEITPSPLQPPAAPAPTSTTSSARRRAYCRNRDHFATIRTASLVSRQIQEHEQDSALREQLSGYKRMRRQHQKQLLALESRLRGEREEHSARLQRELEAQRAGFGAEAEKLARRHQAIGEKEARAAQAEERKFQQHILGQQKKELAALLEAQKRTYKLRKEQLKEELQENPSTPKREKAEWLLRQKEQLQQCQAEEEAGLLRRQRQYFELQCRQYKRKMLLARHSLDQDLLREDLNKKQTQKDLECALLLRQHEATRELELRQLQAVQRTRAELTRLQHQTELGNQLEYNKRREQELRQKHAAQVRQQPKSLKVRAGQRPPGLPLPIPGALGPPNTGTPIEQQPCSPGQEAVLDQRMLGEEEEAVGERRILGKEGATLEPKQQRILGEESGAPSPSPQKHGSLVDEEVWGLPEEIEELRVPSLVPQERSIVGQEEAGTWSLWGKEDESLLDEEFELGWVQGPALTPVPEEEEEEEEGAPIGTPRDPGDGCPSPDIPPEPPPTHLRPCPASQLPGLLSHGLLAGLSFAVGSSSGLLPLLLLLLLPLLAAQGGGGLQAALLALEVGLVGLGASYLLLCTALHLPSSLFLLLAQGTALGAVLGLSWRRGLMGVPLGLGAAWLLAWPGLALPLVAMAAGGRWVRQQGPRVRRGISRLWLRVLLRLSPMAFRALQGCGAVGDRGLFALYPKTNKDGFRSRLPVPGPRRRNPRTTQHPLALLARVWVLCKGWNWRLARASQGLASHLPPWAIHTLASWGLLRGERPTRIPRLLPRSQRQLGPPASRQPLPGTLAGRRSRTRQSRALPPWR
# How it was run: as §1
structure (smiles),measurement,setting,value
CC(C)C(=O)Nc1nc2cc(-c3ccc4c(c3)c(C(=O)NC(C)c3ccccc3)cn4C)ccn2n1 (centres unmarked) [RI-962],activity at 10 µM,[1],135%
same,activity at 10 µM,[2],116%
same,activity at 10 µM,"[3]; read-out: Activity (%), Hck(h)",93%
same,activity at 10 µM,"[3]; read-out: Activity (%), Hck(h) activated",97%
same,activity at 10 µM,[4],100%
same,activity at 10 µM,[5],97%
same,activity at 10 µM,[6],97%
same,activity at 10 µM,[7],86%
same,activity at 10 µM,[8],84%
same,activity at 10 µM,[9],80%
same,activity at 10 µM,[10],88%
same,activity at 10 µM,[11],106%
same,activity at 10 µM,[12],95%
same,activity at 10 µM,[13],97%
same,activity at 10 µM,[14],56%
same,activity at 10 µM,[15],93%
same,activity at 10 µM,[16],119%
same,activity at 10 µM,[17],99%
same,activity at 10 µM,[18],98%
same,activity at 10 µM,[19],85%
same,activity at 10 µM,[20],99%
same,activity at 10 µM,[21],85%
same,activity at 10 µM,[22],86%
same,activity at 10 µM,[23],79%
same,activity at 10 µM,[24],93%
same,activity at 10 µM,[25],92%
